Patent US10000471B2, “Pyrazole P38 map kinase inhibitors” (Respivert Limited, priority 2010, dated 2018)

Tests used:
[1] = molecular target: T1, p38 MAPKα isoform (MAPK14) (Homo sapiens, UniProt Q16539); test: Enzyme inhibition assay (FRET, Z-LYTE), p38 MAPKα via MAPKAP-K2 activation; type: biochemical; conditions: read-out: Enzyme Inhibition IC50 p38α
T1 construct: purchased Invitrogen
Experimental: (§1) The enzyme inhibitory activities of compounds disclosed herein were determined by fluorescence resonance energy transfer (FRET) using synthetic peptides labelled with both donor and acceptor fluorophores (Z-LYTE, Invitrogen Ltd., Paisley, UK). Recombinant, phosphorylated p38 MAPKγ (MAPK12:Invitrogen) was diluted in HEPES buffer, mixed with the test compound at the desired final concentrations and incubated for 2 hr at RT. The FRET peptide (2 μM) and ATP (100 μM) were added to the enzyme/compound mixture and incubated for 1 hr. Development reagent (protease) was added for 1 hr prior to detection in a fluorescence microplate reader (Varioskan® Flash, ThermoFisher Scientific). The site-specific protease cleaves non-phosphorylated peptide only and eliminates the FRET signal. Phosphorylation levels of each reaction were calculated using the ratio of coumarin emission (donor) over fluorescein emission (acceptor) for which high ratios indicate high phosphorylation and low ratios indicate low phosphorylation levels. The percentage inhibition of each reaction was calculated relative to non-inhibited control and the 50% inhibitory concentration (IC50 value) then calculated from the concentration-response curve.
For the p38 MAPKα isoform (MAPK14: Invitrogen), enzyme activity was evaluated indirectly by determining the level of activation/phosphorylation of the down-stream molecule, MAPKAP-K2. The p38 MAPKα protein was mixed with the test compound for 2 hr at RT. […] Development reagent was then added and the mixture incubated for 1 hr before detection by fluorescence completed the assay protocol.

[2] = molecular target: T2, p38 MAPKγ (MAPK12) (Homo sapiens, UniProt P53778); test: Enzyme inhibition assay (FRET, Z-LYTE), p38 MAPKγ; type: biochemical; conditions: read-out: Enzyme Inhibition IC50 p38γ
T2 construct: purchased Invitrogen
T2 sequence (P53778 1-367): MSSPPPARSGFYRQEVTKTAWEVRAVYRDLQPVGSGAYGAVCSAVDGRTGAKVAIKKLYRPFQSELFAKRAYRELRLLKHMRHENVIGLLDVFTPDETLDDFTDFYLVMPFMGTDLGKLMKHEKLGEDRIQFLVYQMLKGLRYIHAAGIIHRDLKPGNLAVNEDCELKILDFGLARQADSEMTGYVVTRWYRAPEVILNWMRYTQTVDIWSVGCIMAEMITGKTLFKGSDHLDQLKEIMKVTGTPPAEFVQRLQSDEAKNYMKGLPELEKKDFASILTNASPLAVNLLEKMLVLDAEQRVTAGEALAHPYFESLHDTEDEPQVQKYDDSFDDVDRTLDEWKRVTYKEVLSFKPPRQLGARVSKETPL
Experimental: as §1

[3] = test system: TNFα release in THP-1 cells; test: LPS-induced TNFα release in THP-1 cells; type: cell-based, human; conditions: Homo sapiens
Experimental: LPS-Induced TNFα Release in THP-1 Cells
THP-1 cells, a human monocytic cell line, were stimulated with 3 μg/mL of LPS (from E. Coli; 0111:B4, Sigma) for 4 hr and the supernatant collected for determination of the TNFα concentration by sandwich ELISA (Duo-set, R&D systems). The inhibition of TNFα production was calculated at each concentration by comparison with vehicle control. The 50% inhibitory concentration (IC50) was determined from the resultant concentration-response curve.

[4] = test system: TNFα release in d-U937 cells; test: LPS-induced TNFα release in d-U937 cells; type: cell-based, human; conditions: Homo sapiens, dU937, relative to 10 μg/mL BIRB796, read-out: LPS/TNFα REC50 d-U937
Experimental: (§2) LPS-Induced TNFα/IL-8 Release in d-U937 Cells
(§3) U937 cells, a human monocytic cell line, were differentiated to macrophage-type cells by incubation with phorbol myristate acetate (PMA; 100 ng/ml) for 48 to 72 hr. Cells were pre-incubated with final concentrations of test compound for 2 hr and were then stimulated with 0.1 μg/mL of LPS (from E. Coli: O111:B4, Sigma) for 4 hr. The supernatant was collected for determination of TNFα and IL-8 concentrations by sandwich ELISA (Duo-set, R&D systems). The inhibition of TNFα production was calculated as a percentage of that achieved by 10 μg/mL of BIRB796 at each concentration of test compound by comparison against vehicle control. The relative 50% effective concentration (REC50) was determined from the resultant concentration-response curve. The inhibition of IL-8 production was calculated at each concentration of test compound by comparison with vehicle control. The 50% inhibitory concentration (IC50) was determined from the resultant concentration-response curve.

[5] = test system: IL-8 release in d-U937 cells; test: LPS-induced IL-8 release in d-U937 cells; type: cell-based, human; conditions: Homo sapiens, dU937
Experimental: as §2, §3

[6] = test system: ICAM-1 induction in BEAS2B cells; test: Poly I:C-induced ICAM-1 induction in BEAS2B cells; type: cell-based, human; conditions: Homo sapiens, BEAS-2B, read-out: PolyIC/ICAM1 IC50 BEAS2B
Experimental: Poly I:C-Induced ICAM-1 Induction in BEAS2B Cells
Poly I:C (1 μg/mL) (Invivogene Ltd., San Diego, Calif.) was transfected into BEAS2B cells (human bronchial epithelial cells, ATCC) with Oligofectamine (Invitrogen, Carlsbad, Calif.). Cells were pre-incubated with final concentrations of test compounds for 2 hr and the level of ICAM1 expression on the cell surface was determined by cell-based ELISA. At a time point 18 hr after poly I:C transfection, cells were fixed with 4% formaldehyde in PBS and then endogenous peroxidase was quenched by the addition of 0.1% sodium azide and 1% hydrogen peroxide. Cells were washed with wash-buffer (0.1% Tween in PBS: PBS-Tween). and after blocking the wells with 5% milk in PBS-Tween for 1 hr, the cells were incubated with anti-human ICAM-1 antibody (Cell Signaling Technology, Danvers, Mass.) in 1% BSA PBS overnight at 4° C. The cells were washed with PBS-Tween and incubated with the secondary antibody (HRP-conjugated anti-rabbit IgG, Dako Ltd., Glostrup, Denmark). The ICAM-1 signal was detected by adding substrate and reading the absorbance at 450 nm against a reference wavelength of 655 nm using a spectrophotometer. The cells were then washed with PBS-Tween and total cell numbers in each well were determined by reading absorbance at 595 nm after Crystal Violet staining and elution by 1% SDS solution. The measured OD 450-655 readings were corrected for cell number by dividing with the OD595 reading in each well. The inhibition of ICAM-1 expression was calculated at each concentration of test compound by comparison with vehicle control. The 50% inhibitory concentration (IC50) was determined from the resultant concentration-response curve.

[7] = test system: Differentiated U937 cells; test: Cell viability MTT assay; type: cell-based, human; conditions: negative = apparent increase in viability; for MTT Assay (Viability) 4 h d-U937, percentage loss of cell viability: 4 hr in 5% FCS; for MTT Assay (Viability) 24 h d-U937, percentage loss of cell viability: 24 h in 10% FCS
Experimental: Differentiated U937 cells were pre-incubated with each test compound under two protocols: the first for 4 hr in 5% FCS and the second in 10% FCS for 24 h. The supernatant was replaced with 200 μL of new media and 10 μL of MTT stock solution (5 mg/mL) was added to each well. After incubation for 1 hr the media were removed, 200 μL of DMSO was added to each well and the plates were shaken lightly for 1 hr prior to reading the absorbance at 550 nm. The percentage loss of cell viability was calculated for each well relative to vehicle (0.5% DMSO) treatment. Consequently an apparent increase in cell viability for drug treatment relative to vehicle is tabulated as a negative percentage.

T1 sequence (Q16539 whole entry, canonical isoform): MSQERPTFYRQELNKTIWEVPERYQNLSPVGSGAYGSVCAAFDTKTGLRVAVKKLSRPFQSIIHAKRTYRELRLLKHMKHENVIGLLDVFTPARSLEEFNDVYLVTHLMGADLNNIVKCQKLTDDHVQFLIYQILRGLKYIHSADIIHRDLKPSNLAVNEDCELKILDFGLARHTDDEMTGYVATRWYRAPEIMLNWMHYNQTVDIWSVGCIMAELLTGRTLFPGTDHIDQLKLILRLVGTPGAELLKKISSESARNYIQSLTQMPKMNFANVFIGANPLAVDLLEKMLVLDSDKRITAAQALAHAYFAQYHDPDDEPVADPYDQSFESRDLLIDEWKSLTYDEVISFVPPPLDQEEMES

SMILES | IC50 [1] [nM] | IC50 [2] [nM] | IC50 [3] [nM] | EC50 [4] [nM] | IC50 [5] [nM] | IC50 [6] [nM] | MTT Assay (Viability) 4 h d-U937, percentage loss of cell viability [7] [%] | MTT Assay (Viability) 24 h d-U937, percentage loss of cell viability [7] [%]
CNC(=O)Nc1cc(Oc2ccc(NC(=O)Nc3cc(C(C)(C)C)nn3-c3ccc(C)cc3)c(Cl)c2Cl)ccn1 [Example 50, 1-(3-tert-butyl-1-p-tolyl-1H-pyrazol-5-yl)-3-(2,3-dichloro-4-(2-(3-methylureido)pyridin-4-yloxy)phenyl)urea] | 41.2 | 59.2 | 1.3 | 0.2 | 0.6 | 1.1 | −5.4 | 35.9
CNC(=O)Nc1cc(Oc2ccc(NC(=O)Nc3cc(C(C)(C)C)nn3-c3ccc(CO)c(OC)c3)c(Cl)c2Cl)ccn1 [Example 53, 1-(3-tert-butyl-1-(4-hydroxymethyl-3-methoxy-phenyl)-1H-pyrazol-5-yl)-3-(2,3-dichloro-4-(2-(3-methylureido)pyridin-4-yloxy)phenyl)urea] | 46.9 | 35.8 | 1.8 | 1.3 | 7.7 | 2.2 | −1.1 | 87.8
COCC(=O)Nc1cc(Oc2ccc(NC(=O)Nc3cc(C(C)(C)C)nn3-c3ccc(O)cc3)c(Cl)c2Cl)ccn1 [Example 41, N-(4-(4-(3-(3-tert-butyl-1-(4-hydroxyphenyl)-1H-pyrazol-5-yl)ureido)-2,3-dichlorophenoxy)pyridin-2-yl)-2-methoxyacetamide] | 54.9 | 46.5 | 0.3 | 0.2 | 1.6 | 1.4 | −24.0 | 76.5
COc1ccc(-n2nc(C(C)(C)C)cc2NC(=O)Nc2ccc(Oc3ccnc(NC(=O)N4CCC(N(C)C)CC4)c3)c(Cl)c2Cl)cc1 [Example 87, N-(4-(4-(3-(3-tert-butyl-1-(4-methoxyphenyl)-1H-pyrazol-5-yl)ureido)-2,3-dichlorophenoxy)pyridin-2-yl)-4-(dimethylamino)piperidine-1-carboxamide] | 14.5 | 16.9 | 1 | 1.7 | 2.1 | 1 | 7.1 | 39.3
COc1ccc(-n2nc(C(C)(C)C)cc2NC(=O)Nc2ccc(Oc3ccnc(NC(=O)N4CCCC4)c3)c(C#N)c2Cl)cc1 [Example 79, N-(4-(4-(3-(3-tert-butyl-1-(4-methoxyphenyl)-1H-pyrazol-5-yl)ureido)-3-chloro-2-cyanophenoxy)pyridin-2-yl)pyrrolidine-1-carboxamide] | 32.3 | 36.6 | 0.5 | 0.4 | 6.6 | 1.3 | −13.9 | 23.2
COCC(=O)Nc1cc(COc2ccc(NC(=O)Nc3cc(C(C)(C)C)nn3-c3ccc(C)cc3)c3cccnc23)ccn1 [Example 16, N-(4-((5-(3-(3-tert-Butyl-1-p-tolyl-1H-pyrazol-5-yl)ureido)quinolin-8-yloxy)methyl)pyridin-2-yl)-2-methoxyacetamide] | 36.7 | 1440 | > 1690 | 876 | 4960 | > 1690 | −8.1 | −21.3
CNCC(=O)Nc1cc(Oc2ccc(NC(=O)Nc3cc(C(C)(C)C)nn3-c3ccc(OC)cc3)c(Cl)c2Cl)ccn1 [Example 42, N-(4-(4-(3-(3-tert-butyl-1-(4-methoxyphenyl)-1H-pyrazol-5-yl)ureido)-2,3-dichlorophenoxy)pyridin-2-yl)-2-(methylamino)acetamide] | 14.6 | 28 | 0.7 | 1.3 | 1.1 | 3.1 | −4.4 | 67.9
COCC(=O)Nc1cc(COc2ccc(NC(=O)Nc3cc(C(C)(C)C)nn3-c3ccc(OC)cc3)c3cccnc23)ccn1 [Example 17, N-(4-((5-(3-(3-tert-Butyl-1-(4-methoxyphenyl)-1H-pyrazol-5-yl)ureido)quinolin-8-yloxy)methyl)pyridin-2-yl)-2-methoxyacetamide] | 54.2 | > 16400 | > 1640 | 16200 | 17100 | > 1640 | −11.5 | 4.0
Cc1ccc(-n2nc(C(C)(C)C)cc2NC(=O)Nc2ccc(Oc3ccnc(NC(=O)N(C)C)c3)c(Cl)c2Cl)cc1 [Example 63] | 28.9 | 140 | 0.5 | 0.3 | 11.4 | 3 | −29.7 | 51.6
